# Measurements as given in patent US9775831B2, “Combinations comprising biphenyl derivatives for use in the treatment of HCV” (BRISTOL-MYERS SQUIBB COMPANY, priority 2013, dated 2017).
# System: genotype-1a variant with glutamine 30 changed to glutamate in the NS5A protein
# Assay: HCV replicon cell-based assay, NS5A synergy with BMS-790052
# Settings: genotype 1a Q→E variant; test compound titrated in combination with NS5A-targeting compound (BMS-790052 fixed at 200 nM)
# Excerpt: The NS5A synergistic inhibitory effect of test compounds can be determined using various amounts of an NS5A-targeting compound with titration of a second compound of interest. […] In one embodiment, the HCV genotype strain can be genotype 1a containing a change at amino acid 30 of the NS5A protein consisting of glutamine to glutamate. The test compound can be chosen from compounds listed above or from others present in the literature.
row,SMILES,Fold Synergistic (1a-QE)
1,CC(C)(C)NC(=O)C(c1ncc(-c2ccc(-c3ccc(-c4cnc(C(C(=O)NC(C)(C)C)C(C)(C)C)[nH]4)cc3)cc2)[nH]1)C(C)(C)C (stereo not shown) [Example B1],>100 Fold
2,CC(C)(C)C(C(=O)Nc1cccc(Cl)c1)c1ncc(-c2ccc(-c3ccc(-c4cnc(C(C(=O)Nc5cccc(Cl)c5)C(C)(C)C)[nH]4)cc3)cc2)[nH]1 (stereo not shown) [Example B2],<10 Fold
3,CCN(CC)C(=O)C(c1ncc(-c2ccc(-c3ccc(-c4cnc(C(C(=O)N(CC)CC)C(C)(C)C)[nH]4)cc3)cc2)[nH]1)C(C)(C)C (stereo not shown) [Example B3],>10 Fold
4,CC(C)(C)C(C(=O)N1CCCC1)c1ncc(-c2ccc(-c3ccc(-c4cnc(C(C(=O)N5CCCC5)C(C)(C)C)[nH]4)cc3)cc2)[nH]1 (stereo not shown) [Example B4],<10 Fold
5,CC(C)(C)C(C(=O)NC1CCCCC1)c1ncc(-c2ccc(-c3ccc(-c4cnc(C(C(=O)NC5CCCCC5)C(C)(C)C)[nH]4)cc3)cc2)[nH]1 (stereo not shown) [Example B5],<10 Fold
6,COC(=O)[C@@H](NC(=O)C[C@@H](CCC(F)(F)F)c1ncc(-c2ccc(-c3ccc(-c4cnc([C@H](CCC(F)(F)F)CC(=O)N[C@H](C(=O)OC)C(C)C)[nH]4)cc3)cc2)[nH]1)C(C)C [Example MD-1],>10 Fold
7,O=C(C[C@@H](CCC(F)(F)F)c1ncc(-c2ccc(-c3ccc(-c4cnc([C@H](CCC(F)(F)F)CC(=O)N5CCC(F)CC5)[nH]4)cc3)cc2)[nH]1)N1CCC(F)CC1 [Example MD-2],>100 Fold
8,CC(C)CNC(=O)C[C@@H](CCC(F)(F)F)c1ncc(-c2ccc(-c3ccc(-c4cnc([C@H](CCC(F)(F)F)CC(=O)NCC(C)C)[nH]4)cc3)cc2)[nH]1 [Example MD-3],>10 Fold
9,CC(C)CNC(=O)C[C@@H](CCC(F)(F)F)c1ncc(-c2ccc(-c3ccc(-c4cnc([C@H](CCC(F)(F)F)CC(=O)O)[nH]4)cc3)cc2)[nH]1 [Example MD-4],<10 Fold
10,CCO[C@H](CC(=O)N(NC(=O)OC)C(C)C)c1ncc(-c2ccc(-c3ccc(-c4cnc([C@@H](CC(=O)N(NC(=O)OC)C(C)C)OCC)[nH]4)cc3)cc2)[nH]1 [Example MD-5],>10 Fold
11,CCO[C@H](CC(=O)NCC(C)C)c1nc(-c2ccc(-c3ccc(-c4c[nH]c([C@@H](CC(=O)NCC(C)C)OCC)n4)cc3)cc2)c[nH]1 [Example MD-6],>10 Fold
12,CC(C)CNC(=O)[C@@H]1OC(C)(C)O[C@H]1c1ncc(-c2ccc(-c3ccc(-c4cnc([C@@H]5OC(C)(C)O[C@H]5C(=O)NCC(C)C)[nH]4)cc3)cc2)[nH]1 [Example MD-7],<10 Fold
13,CC1(C)O[C@@H](C(N)=O)[C@H](c2ncc(-c3ccc(-c4ccc(-c5cnc([C@@H]6OC(C)(C)O[C@H]6C(N)=O)[nH]5)cc4)cc3)[nH]2)O1 [Example MD-9],<10 Fold
14,CC(C)CNC(=O)C[C@@H](C)c1nc(-c2ccc(-c3ccc(-c4c[nH]c([C@H](C)CC(=O)NCC(C)C)n4)cc3)cc2)c[nH]1 [Example MD-11],>100 Fold
15,C[C@H](CC(=O)N1CCC(F)(F)CC1)c1nc(-c2ccc(-c3ccc(-c4c[nH]c([C@H](C)CC(=O)N5CCC(F)(F)CC5)n4)cc3)cc2)c[nH]1 [Example MD-13],>100 Fold
16,CCOC(=O)[C@@H]1OCO[C@H]1c1ncc(-c2ccc(-c3ccc(-c4cnc([C@@H]5OCO[C@H]5C(=O)OCC)[nH]4)cc3)cc2)[nH]1 [Example MD-15],<10 Fold
17,CC(C)[C@H](CC(=O)NCC(C)(C)C)c1ncc(-c2ccc(-c3ccc(-c4cnc([C@@H](CC(=O)NCC(C)(C)C)C(C)C)[nH]4)cc3)cc2)[nH]1 [Example MD-18],>10 Fold
18,CC(C)[C@H](CC(=O)NCc1ccccc1Cl)c1ncc(-c2ccc(-c3ccc(-c4cnc([C@@H](CC(=O)NCc5ccccc5Cl)C(C)C)[nH]4)cc3)cc2)[nH]1 [Example MD-19],>100 Fold
19,CCOCC1(CNC(=O)C[C@H](c2ncc(-c3ccc(-c4ccc(-c5cnc([C@@H](CC(=O)NCC6(COCC)CC6)C(C)C)[nH]5)cc4)cc3)[nH]2)C(C)C)CC1 [Example MD-20],>10 Fold
20,C[C@@H]1CN(C(=O)C[C@@H](C)c2ncc(-c3ccc(-c4ccc(-c5cnc([C@H](C)CC(=O)N6C[C@@H](C)O[C@@H](C)C6)[nH]5)cc4)cc3)[nH]2)C[C@H](C)O1 [Example MD-36],>10 Fold
21,C[C@H](CC(=O)NCC1CC1)c1ncc(-c2ccc(-c3ccc(-c4cnc([C@H](C)CC(=O)NCC5CC5)[nH]4)cc3)cc2)[nH]1 [Example MD-38],>100 Fold
22,CC(C)[C@H](CC(=O)NCC(C)(C)O)c1ncc(-c2ccc(-c3ccc(-c4cnc([C@@H](CC(=O)NCC(C)(C)O)C(C)C)[nH]4)cc3)cc2)[nH]1 [Example MD-41],>10 Fold

row,SMILES,Fold Synergistic (1a-QE)
1,CC(C)(C)CNC(=O)C[C@@H](CCC(F)(F)F)c1ncc(-c2ccc(-c3ccc(-c4cnc([C@H](CCC(F)(F)F)CC(=O)NCC(C)(C)C)[nH]4)cc3)cc2)[nH]1 [Example MD-55],<10 Fold
2,CC(C)N(C(=O)C[C@@H](CCC(F)(F)F)c1ncc(-c2ccc(-c3ccc(-c4cnc([C@H](CCC(F)(F)F)CC(=O)N(C(C)C)C5CC5)[nH]4)cc3)cc2)[nH]1)C1CC1 [Example MD-56],<10 Fold
3,CC(C)NC(=O)C[C@@H](CCC(F)(F)F)c1ncc(-c2ccc(-c3ccc(-c4cnc([C@H](CCC(F)(F)F)CC(=O)N(C(C)C)C5CC5)[nH]4)cc3)cc2)[nH]1 [Example MD-57],>10 Fold
4,COC(=O)NN(C(=O)[C@@H]1OC(C)(C)O[C@H]1c1ncc(-c2ccc(-c3ccc(-c4cnc([C@@H]5OC(C)(C)O[C@H]5C(=O)N(NC(=O)OC)C(C)C)[nH]4)cc3)cc2)[nH]1)C(C)C [MD-8],<10 Fold
5,CC1(C)O[C@@H](C(N)=O)[C@H](c2ncc(-c3ccc(-c4ccc(-c5coc([C@@H]6OC(C)(C)O[C@H]6C(N)=O)n5)cc4)cc3)[nH]2)O1 [MD-10],<10 Fold
6,COC(=O)NN(C(=O)C[C@@H](C)c1nc(-c2ccc(-c3ccc(-c4c[nH]c([C@H](C)CC(=O)N(NC(=O)OC)C(C)C)n4)cc3)cc2)c[nH]1)C(C)C [MD-12],>10 Fold
7,CC(C)CNC(=O)[C@@H]1OCO[C@H]1c1ncc(-c2ccc(-c3ccc(-c4cnc([C@@H]5OCO[C@H]5C(=O)NCC(C)C)[nH]4)cc3)cc2)[nH]1 [MD-14],<10 Fold
8,COC(=O)NN(C(=O)[C@@H]1OCO[C@H]1c1ncc(-c2ccc(-c3ccc(-c4cnc([C@@H]5OCO[C@H]5C(=O)N(NC(=O)OC)C(C)C)[nH]4)cc3)cc2)[nH]1)C(C)C [MD-17],<10 Fold
9,CC(C)[C@H](CC(=O)NC[C@@H]1CC[C@H]2C[C@@H]1C2(C)C)c1ncc(-c2ccc(-c3ccc(-c4cnc([C@@H](CC(=O)NC[C@@H]5CC[C@H]6C[C@@H]5C6(C)C)C(C)C)[nH]4)cc3)cc2)[nH]1 [MD-21],>100 Fold
10,CC(C)[C@H](CC(=O)NCC12CC3CC(CC(C3)C1)C2)c1ncc(-c2ccc(-c3ccc(-c4cnc([C@@H](CC(=O)NCC56CC7CC(CC(C7)C5)C6)C(C)C)[nH]4)cc3)cc2)[nH]1 [MD-22],>100 Fold
11,CC(C)[C@H](CC(=O)NCC1(c2ccccc2)CCCCC1)c1ncc(-c2ccc(-c3ccc(-c4cnc([C@@H](CC(=O)NCC5(c6ccccc6)CCCCC5)C(C)C)[nH]4)cc3)cc2)[nH]1 [MD-23],>100 Fold
12,CCN(CC)C(=O)CN(C)C(=O)C[C@H](c1ncc(-c2ccc(-c3ccc(-c4cnc([C@@H](CC(=O)N(C)CC(=O)N(CC)CC)C(C)C)[nH]4)cc3)cc2)[nH]1)C(C)C [MD-24],>10 Fold
13,CC(C)[C@H](CC(=O)N(C)CC(=O)NC(C)(C)C)c1ncc(-c2ccc(-c3ccc(-c4cnc([C@@H](CC(=O)N(C)CC(=O)NC(C)(C)C)C(C)C)[nH]4)cc3)cc2)[nH]1 [MD-25],>10 Fold
14,CCCCN(C(=O)C[C@H](c1ncc(-c2ccc(-c3ccc(-c4cnc([C@@H](CC(=O)N(CCCC)C(C)C)C(C)C)[nH]4)cc3)cc2)[nH]1)C(C)C)C(C)C [MD-26],>10 Fold
15,CC(C)[C@H](CC(=O)N(CCN1CCOC1=O)CC(C)(C)C)c1ncc(-c2ccc(-c3ccc(-c4cnc([C@@H](CC(=O)N(CCN5CCOC5=O)CC(C)(C)C)C(C)C)[nH]4)cc3)cc2)[nH]1 [MD-27],>10 Fold
16,CC(C)[C@H](CC(=O)NCC(C)(c1ccccc1)c1ccccc1)c1ncc(-c2ccc(-c3ccc(-c4cnc([C@@H](CC(=O)NCC(C)(c5ccccc5)c5ccccc5)C(C)C)[nH]4)cc3)cc2)[nH]1 [MD-28],>100 Fold
17,CC(C)[C@H](CC(=O)N1CCN(c2ccccc2)C(=O)C1)c1ncc(-c2ccc(-c3ccc(-c4cnc([C@@H](CC(=O)N5CCN(c6ccccc6)C(=O)C5)C(C)C)[nH]4)cc3)cc2)[nH]1 [MD-29],<10 Fold
18,CC(C)[C@H](CC(=O)N(C)CC(=O)N(C)C)c1ncc(-c2ccc(-c3ccc(-c4cnc([C@@H](CC(=O)N(C)CC(=O)N(C)C)C(C)C)[nH]4)cc3)cc2)[nH]1 [MD-30],<10 Fold
19,CC(C)[C@H](CC(=O)NC1(C#N)CC1)c1ncc(-c2ccc(-c3ccc(-c4cnc([C@@H](CC(=O)NC5(C#N)CC5)C(C)C)[nH]4)cc3)cc2)[nH]1 [MD-31],<10 Fold
20,CC(C)[C@H](CC(=O)NCC1(c2ccc(F)cc2)CCCC1)c1ncc(-c2ccc(-c3ccc(-c4cnc([C@@H](CC(=O)NCC5(c6ccc(F)cc6)CCCC5)C(C)C)[nH]4)cc3)cc2)[nH]1 [MD-32],>100 Fold
21,CC(C)[C@H](CC(=O)NC1(C#N)CC1)c1ncc(-c2ccc(-c3ccc(-c4cnc([C@@H](CC(=O)NC5(C(N)=O)CC5)C(C)C)[nH]4)cc3)cc2)[nH]1 [MD-33],<10 Fold
